Where two headings read alike, the source gives them in different places.

The text below walks through data of patent US9676771B2, “Compounds for inhibiting drug-resistant strains of HIV-1 integrase” (priority 2013, dated 2017).

A short description of one series: in vitro. The note with it: human, 50% reduction in the level of ATP in HOS cells. Type of series: cell-based, human. In outline: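 Cells exposed to compounds over a concentration range for 48 hrs at 37° C. Viability read as cellular ATP by luciferase (ATPlite) luminescence after lysis, normalised to untreated cells; CC50 derived by regression fit.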
Series [1] has as its system HIV-1 constructs containing wild-type IN. The series is described as follows: microbe, parasite or virus in culture. In kind it is cell-based. The note with it: for EC50: Human immunodeficiency virus 1, WT IN, read-out: EC50 (nM, WT).
The next series has as its target HIV-1 integrase (Human immunodeficiency virus type 1 group M subtype B, UniProt P12497). The series is described as follows: biochemical. In kind it is biochemical. Put shortly: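 Compounds or DMSO added to 20 nM DNA and 400 nM integrase in 50 mM MOPS pH 7.2, 7.5 mM MgCl2, 14 mM 2-mercaptoethanol; 2 h at 37° C, quenched with formamide/SDS loading buffer. Products resolved on gels, imaged and quantified by densitometry.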

Series [2] concerns HIV-1 constructs containing mutant IN N155H. Nature of the series: microbe, parasite or virus in culture. Type of series: cell-based. The conditions noted are these: Human immunodeficiency virus 1. From the text: (§1) Single-Round HIV-1 Infectivity Assay.
(§2) Human embryonyl kidney cell culture cell line 293 was acquired from the American type Culture Collection (ATCC).
(§3) The virus-containing supernatants were then harvested, clarified by low-speed centrifugation, filtrated, and diluted for preparation in infection assays. […] Activity was normalized to infectivity in the absence of target compounds. KaleidaGraph (Synergy Software, Reading, Pa.) was used to perform regression analysis on the data. EC50 values were determined from the fit model.
(§4) pNLNgoMIVR^−ΔEnv.LUC has been described previously (Zhao et al. 2008). The integrase codon reading frame was removed from pNLNgoMIVR^−ΔEnv LUC (between KpnI and SalI sites) and placed between the KpnI and SalI sites of pBluescript II KS+. Using that construct as the wild-type template, we prepared the following HIV-1 Integrase-resistant mutants via the QuikChange II XL (Stratagene, La Jolla, Calif.) site-directed mutagenesis protocol: H51Y, T66I, E92Q, G118R, Y143R, Q148H, Q148K, N155H, R263K, G140S+Q148H, G140A+Q148K, E138K+Q148K, and H51Y+R263K. The following sense with cognate antisense (not shown) oligonucleotides (Integrated DNA Technologies, Coralville, Iowa) were used in the mutagenesis: H51Y, 5′-[…]-3; T66I, 5′-[…]-3′; E92Q, 5′-[…]-3′; G118R, 5′-[…]-3′; E138K, 5′-[…]-3; G140A, 5′-[…]-3; G140S, 5′-[…]-3′; Y143R, 5′-[…]-3′; Q148H, 5′-[…]-3′; Q148K, 5′-[…]-3; N155H, 5′-[…]-3′; R263K 5′-[…]-3′. The double mutation G140S+Q148H was constructed by using the previously generated Q148H mutant and the appropriate oligonucleotide for the 2nd mutation, G140S. The double mutation G140A+Q148K was made by using the Q148K mutant and the appropriate oligonucleotide for the 2nd mutation, G140A. The double mutation E138K+Q148K was made by using the Q148K mutant and the appropriate oligonucleotide for the 2nd mutation, E138K. The double mutation H51Y+R263K was constructed by using the previously generated H51Y mutant and the appropriate oligonucleotides for the 2nd mutation, R263K. The DNA sequence of each construct was verified independently by DNA sequence determination. […] These DNA sequences were additionally checked independently by DNA sequence determination.

Series [3] relates to HIV-1 constructs containing mutant IN G140S-Q148H. The series is described as follows: microbe, parasite or virus in culture. Type of series: cell-based. The note with it: Human immunodeficiency virus 1.
From the text: as §1, §2, §3, §4

In series [4] the test system is HIV-1 constructs containing mutant IN Y143R. Nature of the series: microbe, parasite or virus in culture. Type of series: cell-based. The note with it: Human immunodeficiency virus 1.
From the text: as §1, §2, §3, §4

Setting [5] is: Table 7, 3′-processing, read-out: IC50 (μM) 3′-P.
Where [6] appears, read: Table 7, strand transfer, read-out: IC50 (μM) ST.
The mark [7] stands for this setting: Table 8, read-out: EC50 (nM, IN mutants) N155H.
Where [8] appears, read: Table 8, read-out: EC50 (nM, IN mutants) G140S/Q148H.
Setting [9] is: Table 8, read-out: EC50 (nM, IN mutants) Y143R.
Setting [10] is: Table 4, 3′-processing, read-out: IC50 (3^+-Processing).
Setting [11] is: Table 4, strand transfer, read-out: IC50 (Strand Transfer).
Where [12] appears, read: Table 3, read-out: EC50 (nM, IN Mutants) N155H.
The mark [13] stands for this setting: Table 3, G140S-Q148H double mutant, read-out: EC50 (nM, IN Mutants) SH.
The mark [14] stands for this setting: Table 3, read-out: EC50 (nM, IN Mutants) Y143R.

As for `Nc1c(C(=O)NCc2ccc(F)cc2F)c(=O)n(O)c2ncc(CCc3ccccc3)cc12` [XZ430, 4-Amino-N-(2,4-difluorobenzyl)-1-hydroxy-2-oxo-6-phenethyl-1,2-dihydro-1,8-naphthyridine-3-carboxamide], the CC50 in “in vitro” (Table 8) amounted to 17.6 µM. Besides, the EC50 in series [1] (Table 8) stood at 5.6 nM; in series [2] (setting [7]), 21.1 nM; in series [3] (setting [8]) it was 140 nM; in series [4] (setting [9]) it was 5.5 nM. Moreover, the half-maximal inhibitory concentration (IC50) at HIV-1 integrase (setting [5]) was determined as 48 ± 4 µM; at HIV-1 integrase (setting [6]) it was 0.0145 ± 0.0034 µM.
Consider `O=C(NCc1ccc(F)cc1F)c1c(NC2CCCCCC2)c2cccnc2n(O)c1=O` [XZ376, 4-(cycloheptylamino)-N-(2,4-difluorobenzyl)-1-hydroxy-2-oxo-1,2-dihydro-1,8-naphthyridine-3-carboxamide], for which the CC50 in “in vitro” (Table 3) worked out at 68.7 ± 8.7 µM. For the same compound, the EC50 in series [1] (Table 3) turned out to be 12.2 ± 2.9 nM; in series [2] (setting [12]), 13.7 ± 3.8 nM; in series [3] (setting [13]), 35 ± 11.7 nM; in series [4] (setting [14]), 6.6 ± 1.7 nM. Moreover, the “Si (selectivity index)” value in series [1] (Table 3, ratio of CC50 to EC50) is given as 4,804. Further, the values for the IC50 on HIV-1 integrase (setting [10]) and on HIV-1 integrase (setting [11]) were 13.1 ± 1.1 µM and 0.46 ± 0.18 µM, respectively.
On to `O=C(NCc1ccc(F)cc1F)c1cc2cccnc2n(O)c1=O` [XZ390, N-(2,4-difluorobenzyl)-1-hydroxy-2-oxo-1,2-dihydro-1,8-naphthyridine-3-carboxamide], for which, in the series “in vitro” (Table 3), the half-maximal cytotoxic concentration (CC50) is more than 250 µM. In series [1], the “Si (selectivity index)” value is listed as >25,000. For the same compound, the EC50 was 5.1 ± 1.9 nM in series [1] (Table 3), 134 ± 23 nM in series [2] (setting [12]), 438 ± 121 nM in series [3] (setting [13]) and 4.9 ± 0.77 nM in series [4] (setting [14]). The IC50 at HIV-1 integrase (Table 1, 3′-processing, read-out: IC50 Values 3′-Processing) came to 6.1 ± 0.8 µM; at HIV-1 integrase (Table 1, strand transfer, read-out: IC50 Values Strand transfer), 0.041 ± 0.012 µM.
With `COC(=O)CNc1c(C(=O)NCc2ccc(F)cc2F)c(=O)n(O)c2ncc(CCCCCO)cc12` [XZ431, Methyl 2-((3-((2,4-difluorobenzyl)carbamoyl)-1-hydroxy-6-(5-hydroxypentyl)-2-oxo-1,2-dihydro-1,8-naphthyridin-4-yl)amino)acetate], in the series “in vitro” (Table 8), the CC50 was more than 250 µM. The EC50 in series [1] (Table 8) came to 3.3 nM; in series [2] (setting [7]) it was 11.1 nM; in series [3] (setting [8]) it was 41.6 nM; in series [4] (setting [9]), 3.5 nM. Besides, the values for the IC50 at HIV-1 integrase (setting [5]) and on HIV-1 integrase (setting [6]) were 2.1 ± 0.5 µM and 0.0037 ± 0.0007 µM, respectively.
Consider `O=C(NCc1ccc(F)cc1F)c1c(N2CCOCC2)c2cccnc2n(O)c1=O` [XZ373, N-(2,4-difluorobenzyl)-1-hydroxy-4-morpholino-2-oxo-1,2-dihydro-1,8-naphthyridine-3-carboxamide], for which, in “in vitro” (Table 3), the CC50 turned out to be 8.4 ± 3.2 µM. Besides, the EC50 in series [1] (Table 3) worked out at 1200 ± 260 nM; in series [2] (setting [12]), 3730 ± 920 nM; in series [3] (setting [13]), 6920 ± 2 nM; in series [4] (setting [14]) it was 1800 ± 870 nM. For the same compound, the “Si (selectivity index)” value in series [1] (Table 3, ratio of CC50 to EC50) is listed as 7. Also, the IC50 came out at 77 ± 12 µM at HIV-1 integrase (setting [10]) and 0.079 ± 0.013 µM at HIV-1 integrase (setting [11]).
For `CN(C)c1c(C(=O)NCc2ccc(F)cc2F)c(=O)n(O)c2ncccc12` [XZ372, N-(2,4-difluorobenzyl)-4-(dimethylamino)-1-hydroxy-2-oxo-1,2-dihydro-1,8-naphthyridine-3-carboxamide], the CC50 in the series “in vitro” (Table 3) was found to be 13 ± 1.8 µM. The EC50 in series [1] (Table 3) turned out to be 268 ± 8.03 nM; in series [2] (setting [12]) it was 2300 ± 700 nM; in series [3] (setting [13]) it was 6800 ± 0.4 nM; in series [4] (setting [14]), 273 ± 51.7 nM. Besides, the “Si (selectivity index)” value in series [1] (Table 3, ratio of CC50 to EC50) is 49. Also, the values for the concentration for half-maximal inhibition (IC50) on HIV-1 integrase (setting [10]) and at HIV-1 integrase (setting [11]) were 21 ± 2 µM and 0.087 ± 0.012 µM, respectively.
`Nc1c(C(=O)NCc2ccc(F)cc2F)c(=O)n(O)c2ncc(Br)cc12` [XZ418, 4-Amino-6-bromo-N-(2,4-difluorobenzyl)-1-hydroxy-2-oxo-1,2-dihydro-1,8-naphthyridine-3-carboxamide]: the CC50 in “in vitro” (Table 8) is more than 250 µM. Moreover, the EC50 in series [1] (Table 8) is 0.99 nM; in series [2] (setting [7]), 18.8 nM; in series [3] (setting [8]), 112 nM; in series [4] (setting [9]), 1.95 nM. In addition, the concentration for half-maximal inhibition (IC50) on HIV-1 integrase (setting [5]) came to 7.9 ± 0.8 µM; on HIV-1 integrase (setting [6]), 0.0032 ± 0.0005 µM.
With `CN(C)CCCc1cnc2c(c1)c(N)c(C(=O)NCc1ccc(F)cc1F)c(=O)n2O` [XZ425, 4-Amino-N-(2,4-difluorobenzyl)-6-(3-(dimethylamino)propyl)-1-hydroxy-2-oxo-1,2-dihydro-1,8-naphthyridine-3-carboxamide], the CC50 in the series “in vitro” (Table 8) came out at 5 µM. Moreover, the EC50 came out at 6.07 nM in series [1] (Table 8), 29.4 nM in series [2] (setting [7]), 31.7 nM in series [3] (setting [8]) and 7 ± 2.3 nM in series [4] (setting [9]). Moreover, the IC50 on HIV-1 integrase (setting [5]) stood at 3 ± 0.4 µM; at HIV-1 integrase (setting [6]), 0.0143 ± 0.0022 µM.
`Nc1c(C(=O)NCc2ccc(F)cc2F)c(=O)n(O)c2ncc(CCCCCCOC(=O)c3ccccc3)cc12` [XZ427, 6-(5-Amino-6-((2,4-difluorobenzyl)carbamoyl)-8-hydroxy-7-oxo-7,8-dihydro-1,8-naphthyridin-3-yl)hexyl benzoate]: in “in vitro” (Table 8), the CC50 stood at 14.4 µM. The EC50 in series [1] (Table 8) amounted to 4.8 nM; in series [2] (setting [7]) it was 5.4 nM; in series [3] (setting [8]), 21 nM; in series [4] (setting [9]), 3.5 nM. In addition, the figures for the IC50 on HIV-1 integrase (setting [5]) and at HIV-1 integrase (setting [6]) were 143 ± 14 µM and 3.34 ± 0.557 µM, respectively.
For the compound `Nc1c(C(=O)NCc2ccc(F)cc2F)c(=O)n(O)c2ncc(CCS(=O)(=O)CCN3CCOCC3)cc12` [XZ447, 4-Amino-N-(2,4-difluorobenzyl)-1-hydroxy-6-(2-((2-morpholinoethyl)sulfonyl)ethyl)-2-oxo-1,2-dihydro-1,8-naphthyridine-3-carboxamide], the cytotoxic concentration (CC50) in the series “in vitro” (Table 8) is more than 250 µM. For the same compound, the EC50 was found to be 268 nM in series [1] (Table 8), 140 nM in series [2] (setting [7]), 412 nM in series [3] (setting [8]) and 109 nM in series [4] (setting [9]). Besides, on HIV-1 integrase (Table 10, strand transfer, read-out: IC50 (nM, ST)), the half-inhibitory concentration (IC50) worked out at 0.0025 ± 0.0013 µM.
For the compound `Nc1c(C(=O)NCc2ccc(F)cc2F)c(=O)n(O)c2ncc(CCCCc3ccccc3)cc12` [XZ429, 4-Amino-N-(2,4-difluorobenzyl)-1-hydroxy-2-oxo-6-(4-phenylbutyl)-1,2-dihydro-1,8-naphthyridine-3-carboxamide], the CC50 in “in vitro” (Table 8) was 12.8 µM. The EC50 in series [1] (Table 8) was found to be 10.6 nM; in series [2] (setting [7]), 38.8 nM; in series [3] (setting [8]), 128 nM; in series [4] (setting [9]), 4.7 nM. Besides, the IC50 on HIV-1 integrase (setting [5]) stood at 42 ± 4 µM; on HIV-1 integrase (setting [6]), 1.98 ± 0.422 µM.
